As a reminder, the EC50 is the concentration needed to bring the measured effect to its halfway point.

The series can be described thus: Inhibition of ABCB1 in human K562/A02 cells assessed as potentiation of adriamycin-induced cytotoxicity by measuring compound concentration required for reduction of ADR IC50 after 48 hrs by MTT assay. In general terms: Tetrazolium dyes change colour on reduction, which living cells bring about.

Take `O=C(Nc1ccc(N2CCOCC2)cc1)c1cccnc1NCc1ccncc1`: the half-maximal effective concentration (EC50) was 0.329 µM.
For `COc1cc2c(cc1OC)CN(CCc1ccc(NC(=O)c3cccnc3NCc3ccncc3)cc1)CC2`, the 50% effective concentration (EC50) was 0.12 µM.

The values are drawn from BindingDB's records for doi:10.1021/acs.jmedchem.6b01879 (China Pharmaceutical University, 2017).
